This is an account of results in US20230089899A1, “METHOD FOR NON-TARGETED CHARACTERISATION OF A SOLUTION COMPRISING A PLURALITY OF SOLUTES” (COMMISSARIAT A L'ENERGIE ATOMIQUE ET AUX ENERGIES …, priority 2021, published 2023).

For data set [1] the following is noted: theoretical log D; cited from earlier work.
Data set [2] is described as follows: physchem. An excerpt: The total quantity of moles of the solutes in the mixture (i.e. n0) is approximately 5×10^−4 moles. The pH of the mixture is approximately 7.4 (phosphate buffer: PBS).
A sequence of 3 rows of partitions—as illustrated in FIG. 2—is applied to the mixture by using hydrated n-octanol for the partition of the aqueous mixture and that of the aqueous phases issued from the partitions of rows 1 and 2 (i.e. the phases φ11, φ21 and φ23), and an aqueous solution comprising PBS buffer having a pH of 7 in distilled water for the partition of the organic phases issued from the partitions of rows 1 and 2 (i.e. the phases φ12, φ22 and φ24).
The concentration of each solute in the phases issued from the partitions of rows 1, 2 and 3 (i.e. the phases φ11 to φ38) is monitored by UV-visible spectroscopy but only with the goal of verifying the proper running of the experiment.

Where [3] appears, read: pH 7.4, experimental log D, log D of the solutes as verified experimentally, hydrated n-octanol/PBS buffer, UV-visible spectroscopy.
The mark [4] stands for this setting: pH 7.4, log D, in the experimental conditions used for this validation, n-octanol/aqueous phase, pH approximately 7.4 (PBS).

Take `CC(C)=O` [acetone]: the “log D^THEOR” value in data set [1] is listed as ~−0.24.

One may read the logD as lipophilicity at a set pH, counting ionised and neutral species. With `Cn1c(=O)c2[nH]cnc2n(C)c1=O` [Theophylline, theophylline], the values for the logD in data set [2] (setting [3]) and in data set [2] (setting [4]) were 0.01 and -0.02, respectively.

Turning to `CC(C)(c1ccc(O)cc1)c1ccc(O)cc1` [BPA, bisphenol A], the “log D^THEOR” value in data set [1] is 3.32.

For the compound `c1ccc2[nH]cnc2c1` [Benzimidazole, benzimidazole], the logD in data set [2] (setting [3]) came out at 1.33; in data set [2] (setting [4]), 1.34.
